{"source": "patent US10124035B2", "about": "“DISC-1 pathway activators in the control of neurogenesis” (Massachusetts Institute of Technology, priority 2008, dated 2018)", "system": "TCF reporter in 293T cells", "assay": "TCF reporter activity in DISC1 knockdown 293T cells with Wnt3a conditional medium", "format": "cell-based", "details": "16 hours", "experimental": "Primary neural stem cells from E14 brains were infected with control or DISC1 shRNA lentiviruses. 48 hours after to transduction, cells were treated with vehicle or SB-216763 (5 μM) for 16 hours and then pulsed with 10 μM BrdU for 2 hours. Shown is percentage of GFP and BrdU double positive cells to total GFP positive cells (n=3, p<0.05). b. […] 1.5 μg of vector or WT-DISC1 was cotransfected with 0.5 μg control or DISC1 shRNA-2, 0.1 μg TCF reporter, and 10 ng pRL-TK vector into 293T cells. 48 hours after transfection, Wnt3a conditional medium with vehicle, SB-216763, or AR-A104418 was added for another 16 hours.\n• Mice. Swiss Webster pregnant female mice were purchased from Taconic (Hudson, N.Y.). • Cell Culture. AHPs were kindly provided by Dr. Gage (Lie, D. C. et al. Wnt signaling to regulates adult hippocampal neurogenesis. Nature 437, 1370-5 (2005)) and cultured under conditions described previously (Palmer, T. D., Takahashi, J. & Gage, F. H. The adult rat hippocampus contains primordial neural stem cells. Mol Cell Neurosci 8, 389-404 (1997)). Primary neural progenitors were isolated from E14 mouse embryos and cultured as described previously (Sanada, K. & Tsai, L. H. G protein betagamma subunits and AGS3 control spindle orientation and asymmetric cell fate of cerebral cortical progenitors. Cell 122, 119-31 (2005)). N2a and 293T cells were cultured in DMEM medium containing 10% FBS, L-glutamine, and penicillin/streptomycin. Wnt3a expressing L cells and untransfected L cells were obtained from ATCC (Manassas, Va.). Wnt3a conditional medium was produced according to the ATCC protocol. To induce AHP differentiation, FGF2 was removed from the culture medium and 1 μM retinoic acid/1% FBS was added to the medium for 4 days. • Reagents. Recombinant Wnt3a protein was obtained from Chemicon (Rosemont, Ill.). FGF2 was obtained from PeproTech (Rocky Hill, N.J.). Recombinant GST-GSK3β was obtained from Active Motif (Carlsbad, Calif.). Recombinant GST-β-catenin and GST-axin were obtained from Millipore (Billerica, Mass.). […]", "note": "“Also recorded” adds a separate entry of the source.", "data": [{"molecule": "Cn1cc(C2=C(c3ccc(Cl)cc3Cl)C(=O)NC2=O)c2ccccc21", "note": "[SB-216763]", "values": [{"measurement": "TCF reporter activity in DISC1 knockdown cells", "result": "rescued TCF activity in DISC1 knockdown cells to control levels; also recorded: rescues the TCF activation defect caused by DISC1 knockdown"}]}]}
